Laboratory results taken from patent US6916800B2, “Combination therapy including a matrix metalloproteinase inhibitor and an antineoplastic agent” (Pfizer Inc, priority 1998, dated 2005).

Assays:
melanoma = details: 100 mg/kg; cited from earlier work
[1] = 50 mg/kg bid. p.o.; cited from earlier work
[2] = system: advanced, rapidly progressive, treatment-refractory solid tumor cancers (colorectal, pancreatic, ovarian, prostate); details: cited from earlier work
[3] = dose of 25 mg/kg/day; cited from earlier work
PC-3 tumor cells = assay: Pancreatic Cell (PC-3) Model: MMP inhibitor with cisplatin, tumor volume; type: in vivo; details: PC3 model, n=10
Method: 1. Pancreatic Cell (PC-3) Model:
In this study, the test groups were a vehicle control, Compound M14, Compound M14 with cisplatin and cisplatin alone with n=10 for each group. The tumors were measured with a caliper and the volume calculated using the formula for the volume of an elipsoid. The cisplatin dose was 10 mpk administered by the intraperitonal route on day 8 post injecion of tumor cells Compound M14, 50 mpk, was first administered about 6:00 pm the evening of the same day that the tumor cells were injected in the morning. The same dose of Compound M14 was administered bid for each following day. Tumor volume (mm^3) was measured on day 25.

HT-29 tumors = assay: HT-29 Tumor with Irinotecan: MMPI BID, endpoint 1.0 g; type: in vivo, Mice
Method: 6. HT-29 Tumor with Irinotecan
(§1) Mice were implanted with HT-29 tumors and allowed to grow to 50-100 mg. The animals were pair matched and this was considered Day 1. Treatment with MMPI was begun BID on Day 1 until the end of the experiment. Irinotecan was injected IP (100 or 50 mpk) QD for 5 days (days 1-5). Tumors were measured weekly until an endpoint of 1.0 g was reached.

MX-1 tumors [4] = assay: MX-1 Adjuvant Model: cyclophosphamide then MMPI, mean days to tumor weight of 1.5 g; type: in vivo, Mice
Method: Mice were implanted with MX-1 tumors and allowed to grow to 50-100 mm3. The animals were dosed with cyclophosphamide (100 or 80 mpk). This was considered Day 1. Two weeks later the animals were pair matched after tumor regression and dosing BID with the MMPI was begun until the end of the experiment. Tumors were measured weekly.

MX-1 breast tumor = assay: Breast Tumor Model: MX-1 with Compound M14 and Taxol, tumor volume; type: in vivo, nude mice; details: for Tumor Volume at Day 25: MX-1 model, nude mice
Method: This study was carried out essentially as PC-3 model. MX-1 breast tumor pieces were implanted (with a trocar) into nude mice with n=10 per group. Dosing with Compound M14 (10 mpk or 50 mpk, PO bid) was initiated when the tumors reached a size of 60-120 mg. Dosing was continued for 26 days. Taxol was administered at a dose of 9 mpk for the first five days following the start of dosing by the interperitonal route. The tumors were measured using a caliper and the volume calculated using the formula for the volume of an elipsoid.

MX-1 tumors [5] = assay: MX-1 Breast Tumor with Taxol: MMPI BID, endpoint 1.5 g; type: in vivo, Mice; details: MX-1 tumor
Method: MDS=mean days to tumor weight of 1.5 g 4. MX-1 Breast Tumor with Taxol:
Mice were implanted with MX-1 tumors and allowed to grow to 50-100 mg. The animals were pair matched and this was considered Day 1. Treatment with MMPI was begun BID on Day 1 until the end of the experiment. […] Tumors were measured weekly until an endpoint of 1.5 g was reached.

SK-mes tumors = assay: SK-mes Tumor with Taxol: MMPI BID, endpoint 1.0 g; type: in vivo, Mice
Method: 5. SK-mes Tumor with Taxol
as §1, with “with SK-mes” for “with HT-29”, “experiment. Taxol” for “experiment. Irinotecan”, “IP (18” for “IP (100”, “or 9” for “or 50”

[6] = dose dependent at 27, 125 and 375 µg; cited from earlier work
colonic epithelia = details: variety of cell model systems including colonic epithelia; cited from earlier work
[7] = doses of 15 mg/kg/day; cited from earlier work
Primary tumors = details: cited from earlier work
[8] = mmpi alone, Compound M14 20 mpk BID
[9] = mmpi alone, Compound M14 100 mpk BID
[10] = taxol 9 mpk + Compound M14 20 mpk BID
[11] = taxol 9 mpk + Compound M14 100 mpk BID
[12] = taxol 18 mpk + Compound M14 20 mpk BID
[13] = taxol 18 mpk + Compound M14 100 mpk BID

2-Pyrolylthiochromone
inhibition (melanoma): 37%

CNC(=O)[C@H](CC1CCCCC1)NC(=O)[C@H](CC(C)C)[C@H](O)C(=O)NO (relative stereo) [BB-1433, Butanediamide, N1-[1(cyclohexylmethyl)-2(methylamino)-2-oxoethyl]-N4,3-dihydroxy-2-(2-methylpropyl)-, [2R[N1(S*),2R*,3S*]]-]
bone mineral density loss [1]: inhibited

CNC(=O)[C@@H](NC(=O)[C@H](CC(C)C)[C@H](O)C(=O)NO)C(C)(C)C (relative stereo) [marimastat, N4-[2,2-dimethyl-1-[(methylamino)carbonyl]propyl]-N1,2-dihydroxy-3 (2-methylpropyl)-, [2S-[N4(R*),2R*,3S*]]-)]
most common drug-related toxicity ([2]; clinical trials): musculoskeletal pain and stiffness
rise of cancer-specific antigens used as surrogate markers for biological activity ([2]; patients, Phase I/II): dose-related reduction

CC1(C)SCCN(S(=O)(=O)c2ccc(Oc3ccc(-n4ccnc4)cc3)cc2)[C@H]1C(=O)NO [3(S)-N-hydroxy-4-(4-[4-(imidazol-1-yl)phenoxy]benzenesulfonyl)-2,2-dimethyl-tetrahydro-2H-1,4-thiazine-3-carboxamide]
weight loss inhibition [3]: gave 97.5%

C#CCN1CCC(C(=O)NO)(S(=O)(=O)c2ccc(Sc3ccccc3)cc2)CC1.Cl [Compound M14, N-hydroxy-4-[[4-(phenylthio)phenyl]sulfonyl]-1-(2-propynyl)-4-piperidinecarboxamide monohydrochloride]
Tumor Volume at Day 25 (PC-3 tumor cells; Compound M14 50 mpk bid with cisplatin 10 mpk ip day 8): 110 mm^3
Tumor Volume at Day 25 (PC-3 tumor cells; Compound M14 alone, 50 mpk bid): 480 mm^3
MDS (MDS = 1.0 g) (HT-29 tumors; Irinotecan 50 mpk + Compound M14 20 mpk BID): 36.1 days
MDS (MDS = 1.0 g) (HT-29 tumors; Irinotecan 50 mpk + Compound M14 100 mpk BID): 44.4 days
MDS (MDS = 1.0 g) (HT-29 tumors; Irinotecan 100 mpk + Compound M14 20 mpk BID): 40.6 days
MDS (MDS = 1.0 g) (HT-29 tumors; Irinotecan 100 mpk + Compound M14 100 mpk BID): 51.4 days
MDS (MDS = 1.0 g) (HT-29 tumors; [8]): 36 days
MDS (MDS = 1.0 g) (HT-29 tumors; [9]): 37.9 days
MDS (mean days to tumor weight of 1.5 g) (MX-1 tumors [4]; cyclophosphamide 0 mpk (so in the source), then Compound M14 200 mpk BID): 53.9 days
MDS (mean days to tumor weight of 1.5 g) (MX-1 tumors [4]; cyclophosphamide 80 mpk, then Compound M14 50 mpk BID): 44.2 days
MDS (mean days to tumor weight of 1.5 g) (MX-1 tumors [4]; cyclophosphamide 100 mpk, then Compound M14 50 mpk BID): 43.7 days
MDS (mean days to tumor weight of 1.5 g) (MX-1 tumors [4]; cyclophosphamide 100 mpk, then Compound M14 200 mpk BID): 52.7 days
response (tumor volume) (MX-1 breast tumor; Compound M14 10 mpk or 50 mpk PO bid for 26 days with Taxol 9 mpk for the first five days): improved response
Tumor Volume at Day 25 (MX-1 breast tumor; Compound M14 @ 10 mpk + taxol @ 9 mpk): 240 mm^3
Tumor Volume at Day 25 (MX-1 breast tumor; Compound M14 @ 10 mpk PO bid alone): 960 mm^3
Tumor Volume at Day 25 (MX-1 breast tumor; Compound M14 @ 50 mpk + taxol @ 9 mpk): 480 mm^3
Tumor Volume at Day 25 (MX-1 breast tumor; Compound M14 @ 50 mpk PO bid alone): 1260 mm^3
MDS (MDS = 1.5 g) (MX-1 tumors [5]; [8]): 34.7 days
MDS (MDS = 1.5 g) (MX-1 tumors [5]; [9]): 32.2 days
MDS (MDS = 1.5 g) (MX-1 tumors [5]; [10]): 39.3 days
MDS (MDS = 1.5 g) (MX-1 tumors [5]; [11]): 46.7 days
MDS (MDS = 1.5 g) (MX-1 tumors [5]; [12]): 59.3 days
MDS (MDS = 1.5 g) (MX-1 tumors [5]; [13]): 61 days
MDS (MDS = 1.5 g) (MX-1 tumors [5]; taxol + mmpi as printed, taxol 9 mpk IP QD days 1-5, no MMPI dose printed): 30.1 days
MDS (MDS = 1.5 g) (MX-1 tumors [5]; taxol + mmpi as printed, taxol 18 mpk IP QD days 1-5, no MMPI dose printed): 56 days
MDS (MDS = 1.0 g) (SK-mes tumors; [8]): 18 days
MDS (MDS = 1.0 g) (SK-mes tumors; [9]): 24.7 days
MDS (MDS = 1.0 g) (SK-mes tumors; [10]): 34.1 days
MDS (MDS = 1.0 g) (SK-mes tumors; [11]): 34.8 days
MDS (MDS = 1.0 g) (SK-mes tumors; [12]): 39.5 days
MDS (MDS = 1.0 g) (SK-mes tumors; [13]): 43 days

CC(C)(S)[C@@H](N)C(=O)O [D-penicillamine]
allergic encephalitis symptom scores [6]: reduced

CCc1c2c(nc3ccc(OC(=O)N4CCC(N5CCCCC5)CC4)cc13)-c1cc3c(c(=O)n1C2)COC(=O)[C@]3(O)CC [Irinotecan, reference compound]
MDS (MDS = 1.0 g) (HT-29 tumors; Irinotecan alone 50 mpk IP QD days 1-5): 38.1 days
MDS (MDS = 1.0 g) (HT-29 tumors; Irinotecan alone 100 mpk IP QD days 1-5): 36.7 days

CC(=O)O[C@H]1C(=O)[C@@]2(C)[C@H]([C@H](OC(=O)c3ccccc3)[C@]3(O)C[C@H](OC(=O)[C@H](O)[C@@H](NC(=O)c4ccccc4)c4ccccc4)C(C)=C1C3(C)C)[C@]1(OC(C)=O)CO[C@@H]1C[C@@H]2O [Taxol, reference compound]
Tumor Volume at Day 25 (MX-1 breast tumor; taxol alone, 9 mpk ip first five days): 1280 mm^3
MDS (MDS = 1.0 g) (SK-mes tumors; taxol alone 9 mpk IP QD days 1-5): 26.1 days
MDS (MDS = 1.0 g) (SK-mes tumors; taxol alone 18 mpk IP QD days 1-5): 31.5 days

C[C@H](CCC(=O)O)[C@H]1CC[C@H]2[C@@H]3[C@@H](O)C[C@@H]4C[C@H](O)CC[C@]4(C)[C@H]3CC[C@]12C [URSO]
cytotoxicity (colonic epithelia): non cytotoxic
tolerability and toxicity [7]: extremely well tolerated and without toxicity

N.N.[Cl][Pt][Cl] [cisplatin, Platinum, diamminedichloro-, (SP-4-2)-, reference compound]
Tumor Volume at Day 25 (PC-3 tumor cells; cisplatin alone, 10 mpk intraperitoneal on day 8): 630 mm^3

O=P1(N(CCCl)CCCl)NCCCO1 (stereo not shown) [cyclophosphamide, reference compound]
MDS (mean days to tumor weight of 1.5 g) (MX-1 tumors [4]; cyclophosphamide 80 mpk alone): 37.2 days
MDS (mean days to tumor weight of 1.5 g) (MX-1 tumors [4]; cyclophosphamide 100 mpk alone): 39.5 days

endostatin
toxicity (Primary tumors; in vivo): not observed
primary tumor response (Primary tumors; non-refolded suspensions): regressed to dormant microscopic lesions
